According to ChEMBL document CHEMBL5244223, “l,8-Naphthalimide based DNA intercalators and anticancer agents. A systematic review from 2007 to 2017” (Eur J Med Chem, 2018):

Legend:
CCRF-CEM = experiment: Antiproliferative activity against human CEM cells assessed as inhibition of cell proliferation incubated for 48 hrs by coulter counter assay; assay type: functional, cell-based
[1] = Antiproliferative activity against human HMEC-1 cells assessed as inhibition of cell proliferation incubated for 48 hrs by coulter counter assay; assay type: toxicity, cell-based
HeLa [2] = experiment: Antiproliferative activity against human HeLa cells assessed as inhibition of cell proliferation incubated for 48 hrs by coulter counter assay; assay type: functional, cell-based
L1210 = experiment: Antiproliferative activity against mouse L1210 cells assessed as inhibition of cell proliferation incubated for 48 hrs by coulter counter assay; assay type: functional, cell-based; conditions: L1210, 48 h
MDA-MB-231 = experiment: Antiproliferative activity against human MDA-MB-231 cells assessed as inhibition of cell proliferation incubated for 48 hrs by MTT assay; assay type: functional, cell-based; conditions: MDA-MB-231, 48 h
HepG2 = experiment: Antiproliferative activity against human HepG2 cells assessed as inhibition of cell proliferation incubated for 48 hrs by MTT assay; assay type: functional, cell-based; conditions: HepG2, 48 h
SMMC-7721 = experiment: Antiproliferative activity against human SMMC-7721 cells assessed as inhibition of cell proliferation incubated for 48 hrs by MTT assay; assay type: functional, cell-based; conditions: SMMC-7721, 48 h
A549 = experiment: Cytotoxicity against human A549 cells assessed as inhibition of cell growth incubated for 48 hrs by MTT assay; assay type: functional, cell-based; conditions: A549, 48 h
HeLa [3] = experiment: Cytotoxicity against human HeLa cells assessed as inhibition of cell growth incubated for 48 hrs by MTT assay; assay type: functional, cell-based
K562 = experiment: Antiproliferative activity against human K562 cells assessed as inhibition of cell proliferation incubated for 48 hrs by MTT assay; assay type: functional, cell-based; conditions: K562, 48 h
HCT-116 = experiment: Antiproliferative activity against human HCT-116 cells assessed as inhibition of cell proliferation incubated for 48 hrs by MTT assay; assay type: functional, cell-based; conditions: HCT-116, 48 h

CCOP(=O)(CC(=O)NCn1cc(CN2C(=O)c3cccc4c(Br)ccc(c34)C2=O)nn1)OCC
IC50 (CCRF-CEM): > 250 µM | IC50 at 48 h [1]: > 250 µM | IC50 (HeLa [2]): > 250 µM | IC50 (L1210): > 250 µM

NCCCNCCCN1C(=O)c2cccc3c2c(cc2c(=O)[nH]cnc23)C1=O
IC50 (MDA-MB-231): 2.64 µM | IC50 (HepG2): 2.64 µM | IC50 (SMMC-7721): 2.64 µM

CCOc1cc(OCC)cc(-c2cc(C(F)(F)F)nn2-c2ccc3c4c(cccc24)C(=O)N(CCN(C)C)C3=O)c1
IC50 (A549): 5.06 µM | IC50 (HeLa [3]): 5.06 µM

CN(C)CCN1C(=O)c2cccc3c2c(cc2c(=O)[nH]cnc23)C1=O
IC50 (MDA-MB-231): 2.64 µM | IC50 (HepG2): 2.64 µM | IC50 (SMMC-7721): 2.64 µM

COc1ccccc1-c1cc(C(F)(F)F)nn1-c1ccc2c3c(cccc13)C(=O)N(CCN(C)C)C2=O
IC50 (A549): 5.06 µM | IC50 (HeLa [3]): 5.06 µM

NCCCN1C(=O)c2cccc3cccc(c23)C1=O
IC50 (HepG2): 1.61 µM | IC50 (SMMC-7721): 1.61 µM

CCOP(=O)(CCCCn1cc(CN2C(=O)c3cccc4c(Br)ccc(c34)C2=O)nn1)OCC
IC50 (CCRF-CEM): > 250 µM | IC50 at 48 h [1]: > 250 µM | IC50 (HeLa [2]): > 250 µM | IC50 (L1210): > 250 µM

CCOP(=O)(CC(O)Cn1cc(CN2C(=O)c3cccc4cc([N+](=O)[O-])cc(c34)C2=O)nn1)OCC (centres undefined)
IC50 (CCRF-CEM): > 250 µM | IC50 at 48 h [1]: > 250 µM | IC50 (HeLa [2]): > 250 µM | IC50 (L1210): > 250 µM

CCOP(=O)(Cn1cc(CN2C(=O)c3cccc4cc([N+](=O)[O-])cc(c34)C2=O)nn1)OCC
IC50 (CCRF-CEM): > 250 µM | IC50 at 48 h [1]: > 250 µM | IC50 (HeLa [2]): > 250 µM | IC50 (L1210): > 250 µM

CCCCN1C(=O)c2cccc3c2c(cc2c(=O)[nH]cnc23)C1=O
IC50 (MDA-MB-231): 2.64 µM | IC50 (HepG2): 2.64 µM | IC50 (SMMC-7721): 2.64 µM

CN(C)CCNc1ncnc2c1cc1c3c(cccc32)C(=O)N(CCN(C)C)C1=O
IC50 (MDA-MB-231): 1.12 µM | IC50 (HepG2): 1.12 µM | IC50 (SMMC-7721): 1.12 µM

CCCOc1cc(OCCC)cc(-c2cc(C(F)(F)F)nn2-c2ccc3c4c(cccc24)C(=O)N(CCN(C)C)C3=O)c1
IC50 (A549): 5.06 µM | IC50 (HeLa [3]): 5.06 µM

COc1cc(OC)cc(-c2cc(C(F)(F)F)nn2-c2ccc3c4c(cccc24)C(=O)N(CCN(C)C)C3=O)c1
IC50 (A549): 5.06 µM | IC50 (HeLa [3]): 5.06 µM

CCCOc1ccc(-c2cc(C(F)(F)F)nn2-c2ccc3c4c(cccc24)C(=O)N(CCN(C)C)C3=O)cc1
IC50 (A549): 5.06 µM | IC50 (HeLa [3]): 5.06 µM

NCCCNCCCN1C(=O)c2cccc3cccc(c23)C1=O
IC50 (HepG2): 1.61 µM | IC50 (SMMC-7721): 1.61 µM

CCCOc1ccccc1-c1cc(C(F)(F)F)nn1-c1ccc2c3c(cccc13)C(=O)N(CCN(C)C)C2=O
IC50 (A549): 5.06 µM | IC50 (HeLa [3]): 5.06 µM

CN(C)CCN1C(=O)c2cccc3c2c(cc2c(NCCCCN4CCCC4)ncnc23)C1=O
IC50 (MDA-MB-231): 1.12 µM | IC50 (HepG2): 1.12 µM | IC50 (SMMC-7721): 1.12 µM

NCCCNCC(=O)NCCCN1C(=O)c2cccc3cccc(c23)C1=O
IC50 (K562): 2.86 µM | IC50 (HCT-116): 2.86 µM | IC50 (MDA-MB-231): 2.86 µM | IC50 (HepG2): 2.86 µM

COC(=O)c1ccc2c3c(cccc13)C(=O)N(CCN(C)C)C2=O
IC50 (K562): > 50 µM | IC50 (HCT-116): > 50 µM | IC50 (HepG2): 22.1 µM | IC50 (SMMC-7721): 22.1 µM

NCCCNCCCNCC(=O)NCCCN1C(=O)c2cccc3cccc(c23)C1=O
IC50 (K562): 2.86 µM | IC50 (HCT-116): 2.86 µM | IC50 (MDA-MB-231): 2.86 µM | IC50 (HepG2): 2.86 µM

COc1cccc(-c2cc(C(F)(F)F)nn2-c2ccc3c4c(cccc24)C(=O)N(CCN(C)C)C3=O)c1
IC50 (A549): 5.06 µM | IC50 (HeLa [3]): 5.06 µM

CCOc1ccc(-c2cc(C(F)(F)F)nn2-c2ccc3c4c(cccc24)C(=O)N(CCN(C)C)C3=O)cc1
IC50 (A549): 5.06 µM | IC50 (HeLa [3]): 5.06 µM

CN(C)CCN1C(=O)c2cccc3c2c(cc2c(NCCCN4CCOCC4)ncnc23)C1=O
IC50 (MDA-MB-231): 1.12 µM | IC50 (HepG2): 1.12 µM | IC50 (SMMC-7721): 1.12 µM

CCOC(=O)c1ccc2c3c(cccc13)C(=O)N(CCN(C)C)C2=O
IC50 (K562): > 50 µM | IC50 (HCT-116): > 50 µM | IC50 (HepG2): 25.9 µM | IC50 (SMMC-7721): 13.7 µM

CCOc1cccc(-c2cc(C(F)(F)F)nn2-c2ccc3c4c(cccc24)C(=O)N(CCN(C)C)C3=O)c1
IC50 (A549): 5.06 µM | IC50 (HeLa [3]): 5.06 µM

CCCCCCOC(=O)c1ccc2c3c(cccc13)C(=O)N(CCN(C)C)C2=O
IC50 (K562): > 50 µM | IC50 (HCT-116): > 50 µM | IC50 (HepG2): > 50 µM | IC50 (SMMC-7721): > 50 µM

CN(C)CCN1C(=O)c2cccc3c(-n4nc(C(F)(F)F)cc4-c4ccccc4)ccc(c23)C1=O
IC50 (A549): 5.06 µM | IC50 (HeLa [3]): 5.06 µM

CCCOC(=O)c1ccc2c3c(cccc13)C(=O)N(CCN(C)C)C2=O
IC50 (K562): > 50 µM | IC50 (HCT-116): > 50 µM | IC50 (HepG2): > 50 µM | IC50 (SMMC-7721): > 50 µM

COc1ccc(-c2cc(C(F)(F)F)nn2-c2ccc3c4c(cccc24)C(=O)N(CCN(C)C)C3=O)cc1OC
IC50 (A549): 5.06 µM | IC50 (HeLa [3]): 5.06 µM

CCCOc1cccc(-c2cc(C(F)(F)F)nn2-c2ccc3c4c(cccc24)C(=O)N(CCN(C)C)C3=O)c1
IC50 (A549): 5.06 µM | IC50 (HeLa [3]): 5.06 µM

O=C1c2cccc3c2c(cc2c(=O)[nH]cnc23)C(=O)N1CCCCN1CCOCC1
IC50 (MDA-MB-231): 2.64 µM | IC50 (HepG2): 2.64 µM | IC50 (SMMC-7721): 2.64 µM

CCCCOc1cc(OCCCC)cc(-c2cc(C(F)(F)F)nn2-c2ccc3c4c(cccc24)C(=O)N(CCN(C)C)C3=O)c1
IC50 (A549): 5.06 µM | IC50 (HeLa [3]): 5.06 µM

CN(C)CCN1C(=O)c2cccc3c2c(cc2c(NCCCCN)ncnc23)C1=O
IC50 (MDA-MB-231): 1.12 µM | IC50 (HepG2): 1.12 µM | IC50 (SMMC-7721): 1.12 µM

NCCCCN1C(=O)c2cccc3c2c(cc2c(=O)[nH]cnc23)C1=O
IC50 (MDA-MB-231): 2.64 µM | IC50 (HepG2): 2.64 µM | IC50 (SMMC-7721): 2.64 µM

CCCCOc1cccc(-c2cc(C(F)(F)F)nn2-c2ccc3c4c(cccc24)C(=O)N(CCN(C)C)C3=O)c1
IC50 (A549): 5.06 µM | IC50 (HeLa [3]): 5.06 µM

CCCCCCCCOC(=O)c1ccc2c3c(cccc13)C(=O)N(CCN(C)C)C2=O
IC50 (K562): > 50 µM | IC50 (HCT-116): > 50 µM | IC50 (HepG2): > 50 µM | IC50 (SMMC-7721): > 50 µM

CCCCCCCCCCCCCCOC(=O)c1ccc2c3c(cccc13)C(=O)N(CCN(C)C)C2=O
IC50 (K562): > 50 µM | IC50 (HCT-116): > 50 µM | IC50 (HepG2): > 50 µM | IC50 (SMMC-7721): > 50 µM

COc1ccc(-c2cc(C(F)(F)F)nn2-c2ccc3c4c(cccc24)C(=O)N(CCN(C)C)C3=O)cc1
IC50 (A549): 5.06 µM | IC50 (HeLa [3]): 5.06 µM

CN(C)CCN1C(=O)c2cccc3c2c(cc2c(NCCCNCCCN)ncnc23)C1=O
IC50 (MDA-MB-231): 1.57 µM | IC50 (HepG2): 1.57 µM | IC50 (SMMC-7721): 1.57 µM

Cc1ccc(-c2cc(C(F)(F)F)nn2-c2ccc3c4c(cccc24)C(=O)N(CCN(C)C)C3=O)cc1
IC50 (A549): 5.06 µM | IC50 (HeLa [3]): 5.06 µM

NCCCCNCCCCNCCCCNCC(=O)NCCCN1C(=O)c2cccc3cccc(c23)C1=O
IC50 (K562): 2.86 µM | IC50 (HCT-116): 2.86 µM | IC50 (MDA-MB-231): 2.86 µM | IC50 (HepG2): 2.86 µM

CCCCOc1ccccc1-c1cc(C(F)(F)F)nn1-c1ccc2c3c(cccc13)C(=O)N(CCN(C)C)C2=O
IC50 (A549): 5.06 µM | IC50 (HeLa [3]): 5.06 µM

CCCCCOC(=O)c1ccc2c3c(cccc13)C(=O)N(CCN(C)C)C2=O
IC50 (K562): > 50 µM | IC50 (HCT-116): > 50 µM | IC50 (HepG2): > 50 µM | IC50 (SMMC-7721): > 50 µM

COc1cc(-c2cc(C(F)(F)F)nn2-c2ccc3c4c(cccc24)C(=O)N(CCN(C)C)C3=O)cc(OC)c1OC
IC50 (A549): 5.06 µM | IC50 (HeLa [3]): 5.06 µM

CCCCOc1ccc(-c2cc(C(F)(F)F)nn2-c2ccc3c4c(cccc24)C(=O)N(CCN(C)C)C3=O)cc1
IC50 (A549): 5.06 µM | IC50 (HeLa [3]): 5.06 µM

CCOc1ccccc1-c1cc(C(F)(F)F)nn1-c1ccc2c3c(cccc13)C(=O)N(CCN(C)C)C2=O
IC50 (A549): 5.06 µM | IC50 (HeLa [3]): 5.06 µM

CCCCOC(=O)c1ccc2c3c(cccc13)C(=O)N(CCN(C)C)C2=O
IC50 (K562): > 50 µM | IC50 (HCT-116): > 50 µM | IC50 (HepG2): > 50 µM | IC50 (SMMC-7721): > 50 µM
